Entries after “also recorded” stand apart in the source; their conditions may differ. Read-outs that look alike come from different tables or passages of the source. Where a SMILES comes first, the peptide text is derived from it. Bridges are numbered along the chain shown (N, C = ends). The star is where a group is joined. Chlorambucil = O=C(CCCc1ccc(N(CCCl)CCCl)cc1)*
Columns and labels:
MCF-7 cells = experiment: Toxicity study (CellTiter-Glo)
Description: FIG. 11. Cytotoxicity study of pVEC (SEQ ID NO:6) in MCF-7 cell line. Cells were exposed to different concentrations of pVEC solution in 150 μl of 1% FBS containing media and incubated for 2 h or 48 h at 37° C. The plate was cooled to room temperature, CellTiter-Glo® Reagent (150 μl) was added and the luminescence was measured. The percent of viable cells was compared to the non-treated cells.
FIG. 12. Cytotoxicity study of Cbl and Cbl conjugated peptides in MCF-7 cell line. Cells were exposed to different concentrations of Cbl, Cbl-pVEC (SEQ ID NO:6), Cbl-CREKA-pVEC (SEQ ID NO:22) and Cbl-PEGA-pVEC (SEQ ID NO:21) (0, 1, 5, 55, 100, 150, 200, 400 and 800 (only with Cbl) μM) solution in 150 μl of 1% FBS containing complete media and incubated for 3 h at 37° C. After that 150 μl of 10% FBS containing media was added and the cells were incubated additionally for 45 h at 37° C. (altogether 48 h). The plate was cooled to room temperature, CellTiter-Glo® Reagent (150 μl) was added and the luminescence was measured. The percent of viable cells was compared to the non-treated cells. IC50 values were calculated using GraphPad Prism 4 software.
MCF-7 and MDA-MB-231 cells (20 000 cells/well) were seeded in a 48 well plate two days before the experiment. The cells were exposed to drug in different concentration in full media containing 1% FBS for 3 h where after 10% FBS containing full media was added to achieve 5% FBS containing media and then incubated 45 or 69 h at 37° C. The plate was cooled to room temperature and CellTiter-Glo® Reagent (Promega) was added. The plate was incubated for 10 min at room temperature where after the luminescence was measured.

MDA-MB-231 cells = experiment: Toxicity study (CellTiter-Glo); format: cell-based, human
Description: FIG. 13. Cytotoxicity study of Cbl and Cbl conjugated peptides in MDA-MB-231 cell line. […] (altogether 48 h). […] IC50 values were calculated using GraphPad Prism 4 software.

tumor mice = settings: about 300 μg per mouse for 15 days; cited from earlier work
[1] = tested on: MDA-MB-435 orthotopic xenograft tumors; experiment: Treatment of mice bearing MDA-MB-435 tumors with Cbl-peptide conjugates (tumor growth); format: in vivo, nude Balb/c mice; settings: 15 μg Cbl-equivalent/mouse i.v. every other day, seven times; p<0.01 vs controls
Description: FIG. 26. The inhibition of MDA-MB-435 tumor growth in mice with the Cbl-CREKA-pVEC (SEQ ID NO:22) conjugates. The MDA-MB-435 orthotopic xenografted mice (8 mice/group) were systemically treated with 15 μg of Cbl equivalent of Cbl-CREKA-pVEC (SEQ ID NO:22) and of the controls.
The orthotopic xenografted breast tumors were established by injecting 1×10^6 MDA-MB-435 human breast cancer cells into the mammary fat pad of nude Balb/c mice. Treatment started when mean tumor volumes reached about 100 mm^3. Mice with size-matched tumors were randomized into five groups (eight animals per group): Cbl-CREKA-pVEC (SEQ ID NO:22), Cbl plus CREKA-pVEC, Cbl-CREKA (SEQ ID NO:1), Cbl-pVEC (SEQ ID NO:6) and PBS. Mice were treated intravenously with 15 μg of Cbl-equivalent/mouse every other day for seven times. Tumor size was measured every three days. The mice were monitored for weight loss. The animal experiments reported here were approved by the Animal Research Committee of Burnham Institute for Medical Research.

[2] = read-out: IC50 value (cytotoxicity), MCF-7, 3 h in 1% FBS media, then 45 h (altogether 48 h)
[3] = MDA-MB-231, 3 h in 1% FBS media, then 45 h (altogether 48 h), read-out: IC50 value (cytotoxicity)

Compound | IC50 (MCF-7 cells; Homo sapiens, MCF7, read-out: IC50 value (cytotoxicity)) [µM] | IC50 (MDA-MB-231 cells; Homo sapiens, MDA-MB-231, read-out: IC50 value (cytotoxicity)) [µM] | ED15d dose (tumor mice) [mg/kg] | IC50 (MCF-7 cells; [2]) [µM] | IC50 (MDA-MB-231 cells; [3]) [µM] | inhibition of tumor growth compared with control groups [1]
O=C(O)CCCc1ccc(N(CCCl)CCCl)cc1 [Cbl, reference compound] | 128 | 164 | 15 |  |  | 
CC[C@H](C)[C@H](NC(=O)[C@H](CCCNC(=N)N)NC(=O)[C@H](CCCNC(=N)N)NC(=O)[C@H](CCCNC(=N)N)NC(=O)[C@H](CC(C)C)NC(=O)[C@@H](NC(=O)[C@@H](NC(=O)[C@H](CC(C)C)NC(=O)[C@H](CC(C)C)NC(=O)[C@H](C)NC(=O)[C@H](CCCCN)NC(=O)[C@H](CCC(=O)O)NC(=O)[C@H](CCCNC(=N)N)NC(=O)[C@H](CS)NC(=O)CCCc1ccc(N(CCCl)CCCl)cc1)[C@@H](C)CC)[C@@H](C)CC)C(=O)N[C@@H](CCCNC(=N)N)C(=O)N[C@@H](CCCCN)C(=O)N[C@@H](CCC(N)=O)C(=O)N[C@@H](C)C(=O)N[C@@H](Cc1c[nH]cn1)C(=O)N[C@@H](C)C(=O)N[C@@H](Cc1c[nH]cn1)C(=O)N[C@@H](CO)C(=O)N[C@@H](CCCCN)C(N)=O [Cbl-CREKA-pVEC] (Chlorambucil-CREKALLIILRRRIRKQAHAHSK-NH2) |  |  |  | 10.5 | 8.2 | significant decrease in tumor growth; also recorded: significant inhibition of tumor growth
CC[C@H](C)[C@H](NC(=O)[C@H](CCCNC(=N)N)NC(=O)[C@H](CCCNC(=N)N)NC(=O)[C@H](CCCNC(=N)N)NC(=O)[C@H](CC(C)C)NC(=O)[C@@H](NC(=O)[C@@H](NC(=O)[C@H](CC(C)C)NC(=O)[C@H](CC(C)C)NC(=O)[C@@H]1CSSC[C@H](NC(=O)CCCc2ccc(N(CCCl)CCCl)cc2)C(=O)N2CCC[C@H]2C(=O)NCC(=O)N2CCC[C@H]2C(=O)N[C@@H](CCC(=O)O)C(=O)NCC(=O)N[C@@H](C)C(=O)NCC(=O)N1)[C@@H](C)CC)[C@@H](C)CC)C(=O)N[C@@H](CCCNC(=N)N)C(=O)N[C@@H](CCCCN)C(=O)N[C@@H](CCC(N)=O)C(=O)N[C@@H](C)C(=O)N[C@@H](Cc1c[nH]cn1)C(=O)N[C@@H](C)C(=O)N[C@@H](Cc1c[nH]cn1)C(=O)N[C@@H](CO)C(=O)N[C@@H](CCCCN)C(N)=O [Cbl-PEGA-pVEC] (Chlorambucil-CPGPEGAGCLLIILRRRIRKQAHAHSK-NH2; disulfide 1-9) |  |  |  | 29.9 | 37.4 | 

Reference: patent US20100279918A1, “Chimeric Constructs Between Cancer-Homing Peptides and Cell-Penetrating Peptides Coupled to Anticancer Drugs and/or Diagnostic Agent/Agents” (Burnham Institute for Medical Research, priority 2006, published 2010)
